# Source: article PMC6691773, “Non-covalent immunoproteasome inhibitors induce cell cycle arrest in multiple myeloma MM.1R cells” (Journal of Enzyme Inhibition and Medicinal Chemistry, 2019)
# Assays:
# [1] = target: Human 20S immunoproteasome β1i (Homo sapiens, UniProt P28065); experiment: 20S immunoproteasome inhibition, β1i chymotrypsin-like activity (Ac-Pro-Ala-Leu-AMC)
# Description: (§3) Human 20S immunoproteasome was incubated at 30 °C at a final concentration of 0.004 mg/mL with test compound present at variable concentrations. The reaction buffer consisted of 50 mM Tris HCl, pH 7.4, 10 mM NaCl, 25 mM KCl, 1 mM MgCl2, 0.03% SDS. Product release from substrate hydrolysis (50 µM) was monitored continuously over a period of 10 min.
# [2] = target: Human 20S immunoproteasome β5i (Homo sapiens, UniProt P28062); experiment: 20S immunoproteasome inhibition, β5i chymotrypsin-like activity (Suc-Leu-Leu-Val-Tyr-AMC); conditions: for inhibition at 100 µM: read-out: inhibition of one or two ChT-L activities
# Description: as §3
# [3] = target: β5c subunit of constitutive proteasome; design: method as in PMID 24561716, PMID 24946214; conditions: ChT-L activity of constitutive proteasome; read-out: Ki against β5c subunit; cited from earlier work
# [4] = system: MM.1R cells; experiment: Cytotoxicity by MTT assay; format: cell-based; conditions: Homo sapiens, 24 h, dexamethasone-resistant cells, read-out: EC50 against MM.1R cells
# Description: To test the efficacy of 5 and 6 a cell viability assay was performed. Human multiple myeloma cells (MM.1R; ATCC® CRL-2975™) resistant to dexamethasone were purchased by LGC Standards (Milan, Italy) and cultured under standard conditions (37 °C, 5% CO2) with standard RPMI 1640 medium added with L-glutamine, 10% foetal bovine serum, and 1% antibiotic mixture (penicillin/streptomycin) in sterile flasks. Cells were grown for a week before the assay. Compounds 5–6 were tested at different doses (1–10-20–40-80–100 µM) in a 96 well plate for 24 h to determine the cytotoxic effect. […] At the end of the 5 h, the medium was removed and the insoluble formazan crystals were dissolved with 200 µl/well of dimethyl sulphoxide (DMSO), and the absorbance was read at 540 and 620 nm. The difference between the two absorbance values was used to calculate mean for each replicate and further assess cytotoxicity. […] Results were expressed as % of vitality and reported as means and SEM.
# To test the efficacy of compounds 5–6 in a cell system, we used dexamethasone-resistant human multiple myeloma cells (MM.1R), which are less responsive to chemotherapy, and are representative of patients in the later stages of the disease, as previously described. […] MM.1R cell survival was determined by the tetrazolium dye MTT assay and untreated cells were used as reference and assumed as the 100% of vital cells (Figure 2).
# [5] = system: ubiquitin in MM.1R cells; experiment: Ubiquitin accumulation by western blot; format: cell-based, human; conditions: 24 h, versus ctrl
# Description: (§1) To test the inhibitory effect on proteasome activity, ubiquitin, cyclins, CDK, NF-kB and pNF-kB were assessed by western blot. […] After 24 h, cells were collected and protein extracted for analysis. Protein extraction and western blot analysis were performed as previously described.
# (§2) Briefly, a total of 15 µg of proteins were loaded in each lane and specific antibodies were used to detect ubiquitin (Abcam, Cambridge, UK), cyclin A, cyclin B, cyclin D1, CDK1, CDK4/6, NF-kB, pNF-kB, PARP, and Caspase-3 (Cell Signaling, Danvers, MA, United States). Beta actin (Cell Signaling), was used on stripped blots as loading control. The images have been acquired using a dedicated software and densitometric data were expressed as integrated intensity and reported as means and SEM.
# To test the efficacy of these compounds in inhibiting ubiquitinated protein degradation, a western blot analysis of ubiquitin was performed (Figure 3). In fact, considering that proteasome inhibition leads the cells to accumulate ubiquitinated protein into the cytoplasm, we decided to assess the changes in levels of total ubiquitinated proteins indirectly, by detecting changes in total ubiquitin levels, by western blot analysis. […] It is worth noting that these changes were dose-dependent, this adding an additional level of confidence in our experimental approach.
# [6] = system: cyclin D1 in MM.1R cells; experiment: Cyclin D1 level by western blot; format: cell-based, human; conditions: 24 h, 20 µM
# Description: as §1, §2
# [7] = system: cyclin A in MM.1R cells; experiment: Cyclin A level by western blot; format: cell-based, human; conditions: 24 h, 15 and 20 µM
# Description: as §1, §2
# [8] = system: Caspase-3 in MM.1R cells; experiment: Caspase-3 expression by western blot; format: cell-based, human; conditions: 24 h
# Description: as §1, §2
# [9] = system: PARP in MM.1R cells; experiment: PARP expression by western blot; format: cell-based, human; conditions: 24 h
# Description: as §1, §2
# [10] = system: pNF-kB in MM.1R cells; experiment: pNF-kB level by western blot; format: cell-based, human; conditions: 24 h
# Description: as §1, §2
# [11] = target: T1, Human 20S immunoproteasome β2i (Homo sapiens, UniProt P40306); experiment: 20S immunoproteasome inhibition, β2i trypsin-like activity (Boc-Leu-Arg-Arg-AMC); format: biochemical; conditions: 100 µM inhibitor, preliminary screening
# T1 construct: Human 20S immunoproteasome, isolated from human spleen; purchased Enzo Life Science; host or cells: human spleen (tissue-isolated)
# Description: Human 20S immunoproteasome, isolated from human spleen, was purchased from Enzo Life Science Supplier. The three distinct proteolytic activities of the 20S immunoproteasome were measured by monitoring the hydrolysis of the peptidyl 7-amino-4-methyl coumarin substrates Suc-Leu-Leu-Val-Tyr-AMC (Bachem), Boc-Leu-Arg-Arg-AMC (Bachem) and Ac-Pro-Ala-Leu-AMC (Biomol GmbH) for β5i, β2i and β1i activities of immunoproteasome, respectively. […] Inhibitor solutions were prepared from stocks in DMSO. Each independent assay was performed twice in duplicate in 96-well-plates in a total volume of 200 µL. Fluorescence of the product AMC of the substrate hydrolyses was measured using an Infinite 200 PRO microplate reader (Tecan, Männedorf, Switzerland) at 30 °C with a 380 nm excitation filter and a 460 nm emission filter.
# Human 20S immunoproteasome was incubated at 30 °C at a final concentration of 0.004 mg/mL with test compound present at variable concentrations. The reaction buffer consisted of 50 mM Tris HCl, pH 7.4, 50 mM NaCl, 0.5 mM EDTA III, 0.03% SDS. Product release from substrate hydrolysis (50 µM) was monitored continuously over a period of 10 min.
# [12] = system: NF-kB in MM.1R cells; experiment: NF-kB level by western blot; format: cell-based, human; conditions: 24 h
# Description: as §1, §2
# [13] = system: CDK4/6 in MM.1R cells; experiment: CDK4/6 level by western blot; format: cell-based, human; conditions: 24 h, p < .0005
# Description: as §1, §2
# [14] = system: cyclin B in MM.1R cells; experiment: Cyclin B level by western blot; format: cell-based, human; conditions: 24 h, 20 µM
# Description: as §1, §2
# [15] = system: CDK1 in MM.1R cells; experiment: CDK1 level by western blot; format: cell-based, human; conditions: 24 h, p < .05
# Description: as §1, §2
Ki [1] [µM],Ki [2] [µM],inhibition at 100 µM ([1]; read-out: % of inhibition at 100 µM β1i) [%],inhibition at 100 µM [11] [%],inhibition at 100 µM [2] [%],Structure (SMILES),Ki [3] [µM],EC50 [4] [µM],ubiquitin accumulation ([5]; all tested concentrations),cyclin D1 level [6],cyclin A level [7],Caspase-3 expression [8],PARP expression [9],pNF-kB level [10],NF-kB level [12],CDK4/6 level [13],cyclin B level [14],CDK-1 level [15],ubiquitin accumulation ([5]; 20 µM)
4.9,4.39,–,–,–,CC(C)CCNC(=O)Cn1ccc2ncccc2c1=O [Compound 1],–,–,–,–,–,–,–,–,–,–,–,–,–
–,–,–,–,–,CC(C)CCNC(=O)Cn1ccc2c(c1=O)CCCN2 [Compound 3],10.5,–,–,–,–,–,–,–,–,–,–,–,–
–,6.04 ± 0.29,36,19,> 70,CC(C)CCNC(=O)Cn1cc(Br)c2ncccc2c1=O [Compound 5],0.56,21.2,no significant increase,able to reduce,No trend of reduction,No significant difference,No significant difference,paradoxical increase,–,–,–,–,–
4.9 ± 0.04,4.39 ± 0.18,–,24,> 70,CC(C)CCNC(=O)Cn1ccc2ccc(Br)cc2c1=O [Compound 6],2.34,17.8,–,consistent reduction,very significant (p < .005) reduction,No significant difference,No significant difference,trend of reduction,dose-dependent increase,changed,consistent reduction,changed,significant increase
